Measured values from ChEMBL document CHEMBL6121036, “Evaluation of Cereblon-Directing Warheads for the Development of Orally Bioavailable PROTACs” (J Med Chem, 2025).
In brackets after ≈: the same amount, converted by molar mass. Activity calls are given as the source filed them. The calls are words filed in the database; no cut-off is given here.

What was measured:
[1] = target: T1, Protein cereblon/Bromodomain-containing protein 4 (Homo sapiens, UniProt O60885+Q96SW2); test: PROTAC activity at CRBN/Hibit-tagged BRD4 (unknown origin) expressed in HEK293 cells co-expressing LgBiT assessed as degradation of BRD4 incubated for 24 hrs by […] glo-max assay; format: cell-based
[2] = target: T1, Protein cereblon/Bromodomain-containing protein 4; test: PROTAC activity at CRBN/Hibit-tagged BRD4 (unknown origin) expressed in HEK293 cells co-expressing LgBiT assessed as degradation of BRD4 incubated for 24 hrs by […] glo-max assay relative to control; format: cell-based
[3] = target: T1, Protein cereblon/Bromodomain-containing protein 4; test: PROTAC activity at CRBN/Hibit-tagged BRD4 (unknown origin) expressed in HEK293 cells co-expressing LgBiT assessed as degradation rate incubated for 24 hrs by […] glo-max assay; format: cell-based
MV4-11 = test: Cytotoxicity against human MV4-11 cells assessed as reduction in cell viability incubated for 72 hrs by cell-titer glo assay; format: functional, cell-based; details: MV4-11, 72 h
HD-MB03 = test: Cytotoxicity against human HD-MB03 cells assessed as reduction in cell viability incubated for 72 hrs by cell-titer glo assay; format: functional, cell-based; details: HD-MB03, 72 h
[4] = Kinetic aqueous solubility of the compound at pH 7.4; format: physicochemical; details: read-out: Kinetic_solubility
[5] = Metabolic stability in mouse liver microsomes assessed as half life; format: ADME, Microsome; details: liver microsomes
[6] = target: T2, Protein cereblon/Bromodomain-containing protein 4/DNA damage-binding protein 1 (Homo sapiens) (UniProt O60885+Q96SW2+Q16531); test: Binding affinity to his-tagged CRBN/DDB1/GST-tagged BRD4 (49 to 170 residues)(unknown origin) assessed as ternary complex formation (AUC) incubated for 1 hr by luminescence based Alphascreen assay; format: protein assay
[7] = target: T3, Protein cereblon/Bromodomain-containing protein 2 (Homo sapiens) (UniProt P25440+Q96SW2); test: PROTAC activity at CRBN/Hibit-tagged CRISPR BRD2 (unknown origin) expressed in HEK293 cells coexpressing LgBiT assessed as degradation of BRD2 by […] glo-max assay relative to control; format: cell-based
[8] = Effect on BRD3 level in human MV4-11 cells assessed as fold change at 100 nM measured after 4 hrs; format: functional
[9] = Effect on BRD4 level in human MV4-11 cells assessed as fold change at 100 nM measured after 4 hrs; format: functional
[10] = Effect on BRD2 level in human MV4-11 cells assessed as fold change at 100 nM measured after 4 hrs; format: functional
[11] = Effect on MYC level in human MV4-11 cells assessed as fold change at 100 nM measured after 4 hrs; format: functional
[12] = Effect on FYTTD1 level in human MV4-11 cells assessed as fold change at 100 nM measured after 4 hrs; format: functional
[13] = Effect on CCNF level in human MV4-11 cells assessed as fold change at 100 nM measured after 4 hrs; format: functional
[14] = Effect on CDC42EP3 level in human MV4-11 cells assessed as fold change at 100 nM measured after 4 hrs; format: functional
[15] = Effect on MCL1 level in human MV4-11 cells assessed as fold change at 100 nM measured after 4 hrs; format: functional
[16] = Effect on PLAU level in human MV4-11 cells assessed as fold change at 100 nM measured after 4 hrs; format: functional
[17] = Effect on ZFP36L2 level in human MV4-11 cells assessed as fold change at 100 nM measured after 4 hrs; format: functional
[18] = Effect on FGL2 level in human MV4-11 cells assessed as fold change at 100 nM measured after 4 hrs; format: functional
[19] = Effect on NSA2 level in human MV4-11 cells assessed as fold change at 100 nM measured after 4 hrs; format: functional
[20] = Effect on CCND3 level in human MV4-11 cells assessed as fold change at 100 nM measured after 4 hrs; format: functional
[21] = Effect on AURKA level in human MV4-11 cells assessed as fold change at 100 nM measured after 4 hrs; format: functional
[22] = Effect on NOP53 level in human MV4-11 cells assessed as fold change at 100 nM measured after 4 hrs; format: functional
[23] = Effect on PLK1 level in human MV4-11 cells assessed as fold change at 100 nM measured after 4 hrs; format: functional
[24] = Effect on RNF166 level in human MV4-11 cells assessed as fold change at 100 nM measured after 4 hrs; format: functional
[25] = Effect on ZBTB21 level in human MV4-11 cells assessed as fold change at 100 nM measured after 4 hrs; format: functional
[26] = Effect on TP53 level in human MV4-11 cells assessed as fold change at 100 nM measured after 4 hrs; format: functional
[27] = Stability in mouse plasma assessed as half life by UPLC-MS/MS analysis; format: ADME, cell-free
HEK293 = test: Cytotoxicity against HEK293 cells expressing LgBiT fused HiBiT-BRD2 measured after 24 hrs by cell titer-glo assay; format: toxicity, cell-based; details: human, hek293, 24 h
[28] = target: T3, Protein cereblon/Bromodomain-containing protein 2 (Homo sapiens); test: PROTAC activity at CRBN/Hibit-tagged CRISPR BRD2 (unknown origin) expressed in HEK293 cells coexpressing LgBiT assessed as degradation of BRD2 by […] glo-max assay; format: cell-based
[29] = target: T4, Protein cereblon/Bromodomain-containing protein 3 (Homo sapiens) (UniProt Q15059+Q96SW2); test: PROTAC activity at CRBN/Hibit-tagged CRISPR BRD3 (unknown origin) expressed in HEK293 cells co-expressing LgBiT assessed as degradation of BRD3 by […] glo-max assay; format: cell-based
[30] = target: T1, Protein cereblon/Bromodomain-containing protein 4; test: PROTAC activity at CRBN/Hibit-tagged CRISPR BRD4 (unknown origin) expressed in HEK293 cells co-expressing LgBiT assessed as degradation of BRD4 by […] glo-max assay; format: cell-based
[31] = target: T4, Protein cereblon/Bromodomain-containing protein 3 (Homo sapiens); test: PROTAC activity at CRBN/Hibit-tagged CRISPR BRD3 (unknown origin) expressed in HEK293 cells co-expressing LgBiT assessed as degradation of BRD3 by […] glo-max assay relative to control; format: cell-based
[32] = target: T1, Protein cereblon/Bromodomain-containing protein 4; test: PROTAC activity at CRBN/Hibit-tagged CRISPR BRD4 (unknown origin) expressed in HEK293 cells co-expressing LgBiT assessed as degradation of BRD4 by […] glo-max assay relative to control; format: cell-based
[33] = target: T3, Protein cereblon/Bromodomain-containing protein 2 (Homo sapiens); test: PROTAC activity at CRBN/Hibit-tagged CRISPR BRD2 (unknown origin) expressed in HEK293 cells coexpressing LgBiT assessed as degradation of BRD2 measured after 10 to 14 hrs by […] glo-max assay; format: cell-based; details: time 10-14 hrs
[34] = target: T4, Protein cereblon/Bromodomain-containing protein 3 (Homo sapiens); test: PROTAC activity at CRBN/Hibit-tagged CRISPR BRD3 (unknown origin) expressed in HEK293 cells co-expressing LgBiT assessed as degradation of BRD3 measured after 13 to 16 hrs by […] glo-max assay; format: cell-based; details: time 13-16 hrs
[35] = target: T1, Protein cereblon/Bromodomain-containing protein 4; test: PROTAC activity at CRBN/Hibit-tagged CRISPR BRD4 (unknown origin) expressed in HEK293 cells co-expressing LgBiT assessed as degradation of BRD4 measured after 18 to 24 hrs by […] glo-max assay; format: cell-based; details: time 18-24 hrs
[36] = target: Protein cereblon (Homo sapiens) (UniProt Q96SW2); test: Binding affinity to CRBN (unknown origin)
[37] = Permeability in MDCK-II cells incubated for 1 hr by UPLC/MS/UV analysis; format: ADME, cell-based, Canis lupus familiaris; details: dog, read-out: permeability
[38] = target: T2, Protein cereblon/Bromodomain-containing protein 4/DNA damage-binding protein 1 (Homo sapiens); test: Binding affinity to his-tagged CRBN/DDB1/GST-tagged BRD4 (49 to 170 residues)(unknown origin) assessed as ternary complex formation by measuring AUC incubated for 1 hr by luminescence based Alphascreen assay; format: protein assay

SMILES	DC50 [1]	Emax [2]	Activity [3]	IC50 (MV4-11)	IC50 (HD-MB03)	solubility kinetic [4]	half-life [5]	Activity [6]	Activity [7]	fold change (FC) [8]	fold change (FC) [9]	fold change (FC) [10]	fold change (FC) [11]	fold change (FC) [12]	fold change (FC) [13]	fold change (FC) [14]	fold change (FC) [15]	fold change (FC) [16]	fold change (FC) [17]	fold change (FC) [18]	also measured
Cc1sc2c(c1C)C(c1ccc(Cl)cc1)=N[C@@H](CC(=O)N1CCC(CN3CCN(c4ccc(NC5CCC(=O)NC5=O)cc4)CC3)CC1)c1nnc(C)n1-2 (some centres undefined)	6.51 nM	34.9%	0.036 fRLU/hr	2.92 nM	31.4 nM	5.7 µM (≈ 4.38 µg/mL)	2.45 h	Active	< 50%	-2.78	-2.24	-1.8	-1.77	-0.84	-0.38	-1	-0.49	-0.73	-0.75	-1.19	fold change (FC) [19]: -0.65; fold change (FC) [20]: -0.56; fold change (FC) [21]: -0.55; fold change (FC) [22]: -0.49; fold change (FC) [23]: -0.56; fold change (FC) [24]: -0.29; fold change (FC) [25]: -0.14; fold change (FC) [26]: 1.12; half-life [27]: 12.9 h
Cc1sc2c(c1C)C(c1ccc(Cl)cc1)=N[C@@H](CC(=O)N1CCC(CN3CCN(c4ccc5c(c4)CN(C4CCC(=O)NC4=O)C5=O)CC3)CC1)c1nnc(C)n1-2 (some centres undefined)	0.58 nM	96.6%	0.201 fRLU/hr	0.14 nM	1.56 nM	48.4 µM (≈ 39.1 µg/mL)	0.75 h	Active	> 95%	-3.9	-3.57	-2.91	-1.72	-1.54	-1.47	-1.25	-1.06	-1.05	-1	-1.05	Activity (HEK293): Non-toxic; Activity [28]: Active; Activity [29]: Active; Activity [30]: Active; Activity [31]: > 95%; Activity [32]: > 90%; Activity [33]: Active; Activity [34]: Active; Activity [35]: Active; Activity [36]: Active; fold change (FC) [19]: -1.06; fold change (FC) [20]: -0.97; fold change (FC) [21]: -0.9; fold change (FC) [22]: -0.82; fold change (FC) [23]: -0.78; fold change (FC) [24]: -0.92; fold change (FC) [25]: -0.1; fold change (FC) [26]: 1.87; Papp at 1 h [37]: 3.4 ×10⁻⁶ cm/s; half-life [27]: 29.8 h
Cc1sc2c(c1C)C(c1ccc(Cl)cc1)=N[C@@H](CC(=O)NCCc1ccc(C3CCC(=O)NC3=O)cc1)c1nnc(C)n1-2 (some centres undefined)	0.19 nM	98%	0.733 fRLU/hr	0.18 nM	2.23 nM	71.4 µM (≈ 43.9 µg/mL)	0.27 h	Active	–	–	–	–	–	–	–	–	–	–	–	–	Activity (HEK293): Non-toxic; AUC [38]: 292000
